Results on 30 molecules are retold here after ChEMBL document CHEMBL4765306, “Design, synthesis and biological evaluation of novel naturally-inspired multifunctional molecules for the management of Alzheimer's disease” (Eur J Med Chem, 2020).

In assay [1] the target is Cholinesterase (Equus caballus) (UniProt P81908). Kind of assay: Inhibition of […] equine serum BuChE at 20 uM using butyryl thiocholine iodide as substrate preincubated for 30 mins followed by substrate addition and measured after 30 mins by spectrophotometry based Ellman's method relative to control. Format: cell-free. The settings on record: time 60.0 min. (In general: Ellman's reagent forms a yellow product with free thiols.)
Chain of Cholinesterase (Equus caballus) (P81908 whole entry): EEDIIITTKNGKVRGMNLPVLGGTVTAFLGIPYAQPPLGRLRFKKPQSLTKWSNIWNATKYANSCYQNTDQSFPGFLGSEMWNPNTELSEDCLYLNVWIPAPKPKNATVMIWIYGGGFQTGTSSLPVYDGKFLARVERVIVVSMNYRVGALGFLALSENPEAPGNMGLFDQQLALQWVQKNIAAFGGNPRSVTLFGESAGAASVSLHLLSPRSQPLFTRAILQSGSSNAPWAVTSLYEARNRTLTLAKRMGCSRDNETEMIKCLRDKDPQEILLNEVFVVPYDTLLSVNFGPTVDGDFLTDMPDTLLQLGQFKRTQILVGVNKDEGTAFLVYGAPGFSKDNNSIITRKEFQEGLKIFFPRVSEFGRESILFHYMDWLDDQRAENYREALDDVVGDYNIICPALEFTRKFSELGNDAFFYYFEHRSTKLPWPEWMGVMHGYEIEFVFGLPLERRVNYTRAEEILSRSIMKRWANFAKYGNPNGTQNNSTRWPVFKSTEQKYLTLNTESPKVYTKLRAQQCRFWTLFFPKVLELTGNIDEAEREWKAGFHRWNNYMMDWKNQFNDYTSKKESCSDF

Assay [2] deals with T1, Acetylcholinesterase (Homo sapiens, UniProt P22303). Put plainly: Inhibition of recombinant human erythrocyte AChE using acetylthiocholine iodide as substrate preincubated for 30 mins followed by substrate addition and measured after 30 mins by spectrophotometry based Ellman's method.
T1 sequence (P22303 whole entry): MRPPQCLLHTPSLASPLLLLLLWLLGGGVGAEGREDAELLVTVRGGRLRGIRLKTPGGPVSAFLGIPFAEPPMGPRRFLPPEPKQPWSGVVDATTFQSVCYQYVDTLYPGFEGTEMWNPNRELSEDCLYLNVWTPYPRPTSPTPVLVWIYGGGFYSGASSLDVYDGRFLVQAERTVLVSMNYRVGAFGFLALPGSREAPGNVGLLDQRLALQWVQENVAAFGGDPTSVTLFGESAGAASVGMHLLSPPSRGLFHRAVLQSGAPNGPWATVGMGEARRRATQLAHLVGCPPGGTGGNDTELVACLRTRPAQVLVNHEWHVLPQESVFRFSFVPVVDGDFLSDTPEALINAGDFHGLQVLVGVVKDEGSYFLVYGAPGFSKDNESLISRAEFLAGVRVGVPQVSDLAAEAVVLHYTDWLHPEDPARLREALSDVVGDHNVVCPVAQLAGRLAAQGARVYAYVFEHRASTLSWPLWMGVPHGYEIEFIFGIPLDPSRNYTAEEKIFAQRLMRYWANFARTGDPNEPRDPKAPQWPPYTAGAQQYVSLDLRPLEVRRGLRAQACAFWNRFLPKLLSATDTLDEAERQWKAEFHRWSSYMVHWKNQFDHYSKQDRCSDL
Assay [3] can be described thus: Antioxidant activity assessed as DPPH radical scavenging activity incubated for 25 mins in shaker. Format: functional. (Loss of DPPH colour is used to gauge radical scavenging.)
Assay [4] is described as follows: Antioxidant activity assessed as DPPH radical scavenging activity at 20 uM incubated for 25 mins in shaker relative to control. Format: functional.
Assay [5] is filed under the species Homo sapiens. Put plainly: Disruption of human amyloid beta 1 to 42 assessed as effect on amyloid beta 1 to 42 morphology at 1.58 uM incubated for 10 days by atomic force microscopic analysis. To be noted: time 10.0 day.
Assay [6] deals with Mus musculus. Kind of assay: Memory enhancement effect in scopolamine-induced Swiss albino mouse model of amnesia assessed as increase in spontaneous alteration at 5 mg/kg, po administered for 7 days and observed after 30 mins before scopolamine treatment and measured after 15 mins by Y-maze test. It is filed as functional, organism-based. To be noted: time 7.0 day.
Assay [7] relates to Mus musculus. Put plainly: Memory enhancement effect in scopolamine-induced Swiss albino mouse model of amnesia assessed as effect on total arm entries at 5 mg/kg, po administered for 7 days and observed after 30 mins before scopolamine treatment and measured after 15 mins by Y-maze test. It is filed as functional, organism-based. To be noted: time 7.0 day.
Assay [8] concerns the target Cholinesterase (Equus caballus, UniProt P81908). Put plainly: Inhibition of […] equine serum BuChE using butyryl thiocholine iodide as substrate preincubated for 30 mins followed by substrate addition and measured after 30 mins by spectrophotometry based Ellman's method. Format: cell-free.
Assay [9] can be described thus: Metal chelating activity assessed as Fe3+-compound complex formation at 300 uM measured for 30 mins by MS-MS analysis.
Assay [10] can be described thus: Metal chelating activity assessed as Fe3+-compound complex formation at 300 uM measured for 30 mins by UV-Visible spectrophotometric method.
Assay [11] relates to Mus musculus. Put plainly: Memory enhancement effect in scopolamine-induced Swiss albino mouse model of amnesia assessed as effect on total arm entries at 12.5 to 25 mg/kg, po administered for 7 days and observed after 30 mins before scopolamine treatment and measured after 15 mins by Y-maze test. Format: functional, organism-based. The settings on record: dose 12.5-25 mg/kg, time 7.0 day.

Assay [12] has as its target T1, Acetylcholinesterase. Put plainly: Inhibition of recombinant human erythrocyte AChE at 20 uM using acetylthiocholine iodide as substrate preincubated for 30 mins followed by substrate addition and measured after 30 mins by spectrophotometry based Ellman's method relative to control. The settings on record: time 60.0 min.
Assay [13] relates to Mus musculus. Put plainly: Ex vivo antioxidant activity in brain of scopolamine-induced Swiss albino mouse model of amnesia assessed as increase in CAT level at 12.5 to 25 mg/kg, po administered for 7 days and observed after 30 mins before scopolamine treatment and measured after 15 mins. The settings on record: dose 12.5-25 mg/kg, time 7.0 day. Format: functional, organism-based.

Assay [14] has as its target T1, Acetylcholinesterase. Put plainly: Inhibition of AChE (unknown origin) at 20 uM relative to control.
Assay [15] deals with Mus musculus. Kind of assay: Ex vivo antioxidant activity in brain of scopolamine-induced Swiss albino mouse model of amnesia assessed as increase in SOD level at 12.5 to 25 mg/kg, po administered for 7 days and observed after 30 mins before scopolamine treatment and measured after 15 mins. Format: functional, organism-based. The settings on record: dose 12.5-25 mg/kg, time 7.0 day.

The subject of assay [16] is Mus musculus. Kind of assay: Ex vivo inhibition of AChE in brain of scopolamine-induced Swiss albino mouse model of amnesia at 12.5 to 25 mg/kg, po administered for 7 days and observed after 30 mins before scopolamine treatment and measured after 15 mins using acetylthiocholine iodide as substrate by Ellman's method. It is filed as functional, organism-based. To be noted: dose 12.5-25 mg/kg, time 7.0 day.

In assay [17] the target is Cholinesterase (Homo sapiens) (UniProt P06276). Kind of assay: Inhibition of BuChE (unknown origin) at 20 uM relative to control.
Chain of Cholinesterase (Homo sapiens) (P06276 whole entry): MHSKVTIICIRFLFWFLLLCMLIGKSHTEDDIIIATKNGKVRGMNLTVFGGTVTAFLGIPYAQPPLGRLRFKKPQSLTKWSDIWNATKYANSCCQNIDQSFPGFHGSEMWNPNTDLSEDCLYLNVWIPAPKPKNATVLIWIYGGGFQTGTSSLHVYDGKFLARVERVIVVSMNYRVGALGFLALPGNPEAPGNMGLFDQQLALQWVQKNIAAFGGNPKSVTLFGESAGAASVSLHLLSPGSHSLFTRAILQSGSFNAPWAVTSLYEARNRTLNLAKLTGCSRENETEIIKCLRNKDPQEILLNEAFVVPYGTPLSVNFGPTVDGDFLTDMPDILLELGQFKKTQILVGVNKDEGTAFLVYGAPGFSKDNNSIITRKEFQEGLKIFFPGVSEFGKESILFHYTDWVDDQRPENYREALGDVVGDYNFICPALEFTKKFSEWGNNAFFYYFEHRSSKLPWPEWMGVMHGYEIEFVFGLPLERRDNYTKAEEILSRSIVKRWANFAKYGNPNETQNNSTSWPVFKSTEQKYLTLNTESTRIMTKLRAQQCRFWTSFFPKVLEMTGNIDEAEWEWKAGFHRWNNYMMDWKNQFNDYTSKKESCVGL
Assay [18] concerns Mus musculus. Kind of assay: Ex vivo antioxidant activity in brain of scopolamine-induced Swiss albino mouse model of amnesia assessed as decrease in MDA level at 12.5 to 25 mg/kg, po administered for 7 days and observed after 30 mins before scopolamine treatment and measured after 15 mins. It is filed as functional, organism-based. The settings on record: dose 12.5-25 mg/kg, time 7.0 day.

Assay [19] relates to Mus musculus. Kind of assay: Memory enhancement effect in scopolamine-induced Swiss albino mouse model of amnesia assessed as increase in spontaneous alteration at 12.5 to 25 mg/kg, po administered for 7 days and observed after 30 mins before scopolamine treatment and measured after 15 mins by Y-maze test. Format: functional, organism-based. The settings on record: dose 12.5-25 mg/kg, time 7.0 day.

Assay [20] deals with Mus musculus. Put plainly: Ex vivo inhibition of BChE in brain of scopolamine-induced Swiss albino mouse model of amnesia at 12.5 to 25 mg/kg, po administered for 7 days and observed after 30 mins before scopolamine treatment and measured after 15 mins using butyryl thiocholine iodide as substrate by Ellman's method. The settings on record: dose 12.5-25 mg/kg, time 7.0 day. It is filed as functional, organism-based.

Active and inactive are the calls of the source. The rule behind the calls is not given here.

Chain of Cholinesterase (P81908 whole entry): as the sequence (P81908 whole entry) above

One may read the inhibition as how much of the control response was suppressed. A word on the IC50: it is the midpoint of a concentration-inhibition curve. For `COc1cc(/C=C/C(=O)N2CCN(c3ccc(F)cc3)CC2)ccc1O`, in [1], the inhibition was 27.7%. Besides, the IC50 in [2] came to 11 µM.

In the case of `COc1cc(/C=C/C(=O)NCC(=O)Nc2ccccc2OC)ccc1O`, in assay [1], the inhibition came out at 43.3%. Also, the IC50 in [2] is 5.75 µM.

In the case of `COc1cc(/C=C/C(=O)NCC(=O)Nc2ccccc2Cl)ccc1O`, in assay [1], the inhibition was 47.4%. For the same molecule, in assay [2], the IC50 came out at 5.72 µM.

Take `COc1cc(/C=C/C(=O)NCC(=O)Nc2ccc(Br)cc2)ccc1O`: in assay [1], the inhibition came out at 39.3%. Besides, the IC50 in assay [2] worked out at 10.2 µM.

On to `COc1cc(/C=C/C(=O)NCC(=O)Nc2ccc(C#N)cc2)ccc1O`, for which the inhibition in assay [1] amounted to 35.7%. In addition, the IC50 in assay [2] came out at 17.4 µM.

Take `COc1cc(/C=C/C(=O)NCC(=O)Nc2cccc(C)c2)ccc1O`: the inhibition in [1] was determined as 36.1%. In addition, the IC50 in [2] is 18.9 µM.

Turning to `COc1cc(/C=C/C(=O)NCC(=O)Nc2cccc(Cl)c2)ccc1O`, in assay [1], the inhibition stood at 48.5%. Moreover, the IC50 turned out to be 5.68 µM in [2] and 108 µM in assay [3]. Further, the Activity in assay [4] stood at 12.7%.

With `COc1cc(/C=C/C(=O)NCC(=O)Nc2cccc(C#N)c2)ccc1O`, the inhibition in assay [1] came to 31.6%. The IC50 in assay [2] stood at 16 µM.

Turning to `COc1cc(/C=C/C(=O)NCC(=O)Nc2ccc(F)cc2)ccc1O`, the inhibition in assay [1] came to 42.2%. Moreover, in [2], the IC50 was determined as 12.9 µM.

For the molecule `COc1ccc(N2CCN(C(=O)/C=C/c3ccc(O)c(OC)c3)CC2)cc1`, in [1], the inhibition stood at 44.7%. Besides, in assay [2], the IC50 is 12 µM.

On to `COc1cc(/C=C/C(=O)NCC(=O)Nc2ccc(C(F)(F)F)cc2)ccc1O`, for which the inhibition in [1] turned out to be 37.2%. For the same molecule, the IC50 in assay [2] stood at 8.23 µM.

Turning to `COc1cc(/C=C/C(=O)NCC(=O)Nc2cccc(F)c2)ccc1O`, in [1], the inhibition was found to be 38.3%. Also, the IC50 in assay [2] is 22.1 µM.

As to `COc1cc(/C=C/C(=O)N2CCN(c3cccc([N+](=O)[O-])c3)CC2)ccc1O`, the inhibition in assay [1] came out at 37.9%. The concentration for half-maximal inhibition (IC50) in assay [2] was determined as 23.4 µM.

For the molecule `COc1cc2c(cc1OC)C(=O)C(CC1CCN(Cc3ccccc3)CC1)C2` (stereo not given), the result in assay [5] was inactive. For the same molecule, the result in assay [6] and in [7] was Active.

In the case of `COc1cc(/C=C/C(=O)N2CCN(c3ccc(C)cc3)CC2)ccc1O`, in assay [1], the inhibition worked out at 38.1%. Moreover, the IC50 in assay [2] was found to be 19.5 µM.

Take `COc1cc(/C=C/C(=O)NCC(=O)Nc2ccc(Cl)cc2)ccc1O`: in assay [1], the inhibition was found to be 46.9%. Further, the results for the IC50 in assay [2] and in [3] were 3.43 µM and 101 µM, respectively. The Activity in assay [4] amounted to 16.7%.

As for `COc1cc(/C=C/C(=O)NCC(=O)Nc2ccccc2F)ccc1O`, the inhibition in [1] came to 31.9%. In assay [2], the IC50 is 17.2 µM.

As to `COc1ccc(NC(=O)CNC(=O)/C=C/c2ccc(O)c(OC)c2)cc1`, the inhibition in assay [1] was found to be 49.9%. The IC50 was 19.5 µM in assay [8], 17.3 µM in assay [2] and 91.2 µM in assay [3]. In assay [4], the Activity is 23.6%.

In the case of `COc1cc(/C=C/C(=O)NCC(=O)Nc2cccc(C(F)(F)F)c2)ccc1O`, the inhibition in [1] stood at 34.9%. The IC50 in assay [2] is 9.31 µM.

Turning to `COc1cccc(NC(=O)CNC(=O)/C=C/c2ccc(O)c(OC)c2)c1`, the outcome in assay [9] and in assay [10] was Active. Moreover, the inhibition in assay [1] stood at 55.4%. In addition, the IC50 in assay [8] amounted to 15.3 µM; in assay [2], 2.42 µM; in [3], 94.3 µM. Further, in assay [4], the Activity was 19.1%.

Regarding `COc1cc(/C=C/C(=O)N2CCN(c3ccc(Cl)cc3)CC2)ccc1O`, the inhibition in assay [1] was found to be 33.2%. Besides, the 50% inhibitory concentration (IC50) in assay [2] stood at 11.1 µM.

As for `COc1cc(/C=C/C(=O)NCC(=O)Nc2ccccc2C(F)(F)F)ccc1O`, in assay [1], the inhibition was found to be 43.2%. Moreover, the IC50 in assay [2] stood at 15.1 µM.

Consider `COc1cc(/C=C/C(=O)O)ccc1O` [FERULATE], for which the outcome in assay [11], in assay [16], in [19] and in assay [20] was inactive. In addition, the inhibition in [12] is under 10%; in assay [14], under 20%; in [1], 19.7%; in assay [17], under 20%. For the same molecule, the outcome in [13], in assay [5], in [15] and in assay [18] was Active. Besides, in assay [3], the half-inhibitory concentration (IC50) turned out to be 56.5 µM. In addition, in assay [4], the Activity came to 28.6%.

As for `COc1cc(/C=C/C(=O)NCC(=O)Nc2ccc(C)cc2)ccc1O`, the inhibition in assay [1] is 35.6%. Besides, the IC50 in [2] amounted to 12.6 µM.

For `COc1cc(/C=C/C(=O)NCC(=O)Nc2cccc(Br)c2)ccc1O`, the inhibition in assay [1] is 36.6%. In addition, the IC50 in [2] worked out at 13.1 µM.

In the case of `COc1cc(/C=C/C(=O)N2CCN(c3ccccc3)CC2)ccc1O`, in assay [1], the inhibition amounted to 37%. Moreover, the IC50 in assay [2] is 29.3 µM.

Take `COc1cc(/C=C/C(=O)NCC(=O)Nc2ccc3ncccc3c2)ccc1O`: the inhibition in [1] stood at 57.7%. For the same molecule, the IC50 turned out to be 14.3 µM in assay [8], 4.89 µM in assay [2] and 77.6 µM in assay [3]. Besides, in [4], the Activity amounted to 18.6%.

In the case of `COc1cccc(N2CCN(C(=O)/C=C/c3ccc(O)c(OC)c3)CC2)c1`, in assay [1], the inhibition is 26.9%. Further, the IC50 in [2] stood at 9.91 µM; in [3], 62 µM. Moreover, in [4], the Activity was determined as 28.8%.

In the case of `COc1cc(/C=C/C(=O)NCC(=O)Nc2ccccc2)ccc1O`, the inhibition in assay [1] was determined as 38.2%. Further, the 50% inhibitory concentration (IC50) in [2] was 21.9 µM.

As for `COc1cc(/C=C/C(=O)NCC(=O)Nc2ccccc2C)ccc1O`, the inhibition in assay [1] amounted to 36.8%. Moreover, in assay [2], the 50% inhibitory concentration (IC50) was found to be 16.3 µM.
